From patent US10294212B2 (CURADEV PHARMA PRIVATE LTD., priority 2013, dated 2019) come the findings set out here.

One may read the pIC50 as −log10 of the IC50, conventionally taken in molar units.

Assay [1] concerns the target Human indoleamine 2,3-dioxygenase1 (hIDO1) (Homo sapiens (Human), UniProt P14902). The experiment in a line: In-vitro IDO1 enzyme assay (conversion of L-tryptophan to KYN). Format: biochemical. The settings on record: read-out: IC50 (IDO1) Enz. The gist of the method:
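Kynurenine formation quantified by HPLC absorbance at 360 nm or LC/MS/MS after TCA quench and 15 min at 65 °C. Reaction: 10 nM N-His hIDO1, 30 μM tryptophan, ascorbate/methylene blue/catalase, pH 6.5 phosphate buffer, 37 °C for 30 min. Inhibition relative to 1% DMSO vehicle, fitted to IC50.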

In assay [2] the target is Human TDO (hTDO)-transfected CHO-K1 cells (Homo sapiens (Human), UniProt P48775). The assay is described as follows: CHO-K1 cell based TDO assay. As to conditions: hTDO cellular assay. The gist of the method:
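Kynurenine output was read by LC/MS/MS after TCA precipitation and 15 min at 65° C. Before that, CHO-K1 cells stably carrying human TDO2 were incubated 2 h with compounds (typically 31 μM to 10 nM) and 80 μM L-tryptophan in HBSS. Decrease versus DMSO vehicle gave percent inhibition, then IC50.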

The next assay addresses IDO1 in HeLa cells (Homo sapiens (Human), UniProt P14902). The experiment in a line: HeLa cell based IDO1 assay (IFNγ-induced, KYN in supernatant). The gist of the method:
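Kynurenine in the supernatant, quantified by C-18 HPLC with 360 nm absorbance after TCA hydrolysis (65 °C, 15 min), was the read-out. Compounds (typically 10 μM to 1 nM) were added in HBSS containing 80 μM tryptophan to HeLa cells pre-induced overnight with 50 ng/mL IFNγ. IC50 came from nonlinear fits of % inhibition versus 1% DMSO vehicle.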

pIC50: −log10 of the molar value. Where a name gives a salt, the structure may show the parent alone. Where only a bound is given, the exact number is not on record here.

Chain of Human indoleamine 2,3-dioxygenase1 (hIDO1) (P14902 whole entry): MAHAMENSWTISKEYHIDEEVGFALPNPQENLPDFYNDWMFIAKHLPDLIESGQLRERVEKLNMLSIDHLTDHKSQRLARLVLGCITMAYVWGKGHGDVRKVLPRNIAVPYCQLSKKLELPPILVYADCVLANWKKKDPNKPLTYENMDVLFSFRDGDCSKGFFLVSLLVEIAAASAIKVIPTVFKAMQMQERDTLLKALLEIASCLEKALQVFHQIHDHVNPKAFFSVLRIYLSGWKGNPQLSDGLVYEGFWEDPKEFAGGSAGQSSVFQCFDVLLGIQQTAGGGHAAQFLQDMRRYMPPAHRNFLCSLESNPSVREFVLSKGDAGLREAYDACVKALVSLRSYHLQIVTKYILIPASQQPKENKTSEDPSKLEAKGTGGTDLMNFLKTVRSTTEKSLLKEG
Chain of IDO1 in HeLa cells (P14902 whole entry): as above
Chain of Human TDO (hTDO)-transfected CHO-K1 cells (P48775 whole entry): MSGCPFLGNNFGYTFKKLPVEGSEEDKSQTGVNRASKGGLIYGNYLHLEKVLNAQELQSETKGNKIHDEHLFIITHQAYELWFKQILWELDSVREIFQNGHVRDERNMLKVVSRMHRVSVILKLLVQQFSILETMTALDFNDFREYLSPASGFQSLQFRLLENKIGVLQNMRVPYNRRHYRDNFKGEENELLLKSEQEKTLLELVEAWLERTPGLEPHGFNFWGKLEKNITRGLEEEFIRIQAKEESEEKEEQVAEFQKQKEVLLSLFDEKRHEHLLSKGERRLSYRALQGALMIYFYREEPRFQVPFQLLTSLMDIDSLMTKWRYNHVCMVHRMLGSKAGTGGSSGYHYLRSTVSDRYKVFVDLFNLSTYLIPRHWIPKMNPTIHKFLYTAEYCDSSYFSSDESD

`Nc1oc2c(-c3ccncc3)nccc2c1Nc1ccc(F)cc1` [Compound 201, N^3-(4-Fluorophenyl)-7-(pyridin-4-yl)furo[2,3-c]pyridine-2,3-diamine]: the pIC50 in assay [1] was above 6.70; in assay [2], above 6.30; on IDO1 in HeLa cells, above 6.70.
As for `Nc1oc2c(-c3ccncc3)nccc2c1Nc1ccccc1Cl` [Compound 202, N^3-(2-Chlorophenyl)-7-(pyridin-4-yl)furo[2,3-c]pyridine-2,3-diamine], the pIC50 was above 6.70 in assay [1], 5.70 to 6.30 in assay [2] and above 6.70 against IDO1 in HeLa cells.
`Nc1oc2c(-c3ccncc3)nccc2c1Nc1cccc(C(F)(F)F)c1` [Compound 203, 7-(Pyridin-4-yl)-N^3-(3-(trifluoromethyl)phenyl)furo[2,3-c]pyridine-2,3-diamine]: the pIC50 in assay [1] is above 6.70; in assay [2] it was 5.70 to 6.30; against IDO1 in HeLa cells, above 6.70.
Turning to `Nc1oc2c(-c3cccc4ccccc34)nccc2c1Nc1ccc(F)c(Cl)c1` [Compound 204, N^3-(3-Chloro-4-fluorophenyl)-7-(naphthalen-1-yl)furo[2,3-c]pyridine-2,3-diamine], the pIC50 in assay [1] was above 6.70; in assay [2], above 6.30; against IDO1 in HeLa cells, above 6.70.
Take `Cc1cc(-c2nccc3c(Nc4ccc(F)c(C(F)(F)F)c4)c(N)oc23)ccn1` [Compound 205, N^3-(4-fluoro-3-(trifluoromethyl)phenyl)-7-(2-methylpyridin-4-yl)furo[2,3-c]pyridine-2,3-diamine]: the pIC50 was above 6.70 in assay [1], 5.70 to 6.30 in assay [2] and above 6.70 on IDO1 in HeLa cells.
For `Cc1cc(-c2nccc3c(Nc4ccccc4Cl)c(N)oc23)ccn1` [Compound 206, N^3-(2-chlorophenyl)-7-(2-methylpyridin-4-yl)furo[2,3-c]pyridine-2,3-diamine], the pIC50 in assay [1] is above 6.70; in assay [2], 5.70 to 6.30; on IDO1 in HeLa cells it was above 6.70.
For `Cc1cc(-c2nccc3c(Nc4cccc(C(F)(F)F)c4)c(N)oc23)ccn1` [Compound 207, 7-(2-methylpyridin-4-yl)-N^3-(3-(trifluoromethyl)phenyl)furo[2,3-c]pyridine-2,3-diamine], the pIC50 in assay [1] is above 6.70; in assay [2], 5.70 to 6.30; at IDO1 in HeLa cells, above 6.70.
On to `Cc1cc(-c2nccc3c(Nc4ccc(F)cc4)c(N)oc23)ccn1` [Compound 208, N^3-(4-fluorophenyl)-7-(2-methylpyridin-4-yl)furo[2,3-c]pyridine-2,3-diamine], for which the pIC50 in assay [1] was above 6.70; in assay [2], above 6.30; on IDO1 in HeLa cells it was above 6.70.
Regarding `Nc1sc2c(Br)cccc2c1Nc1ccc(F)c(Cl)c1` [Compound 210, 7-Bromo-N^3-(3-chloro-4-fluorophenyl)benzo[b]thiophene-2,3-diamine hydrochloride], the pIC50 in assay [1] was above 6.70; in assay [2] it was 5.70 to 6.30; against IDO1 in HeLa cells it was 6.00 to 6.70.
For `Nc1sc2ccccc2c1Nc1ccc(F)c(F)c1` [Compound 211, N^3-(3,4-Difluorophenyl)benzo[b]thiophene-2,3-diamine], the pIC50 in assay [1] was above 6.70; in assay [2], above 6.30; on IDO1 in HeLa cells, above 6.70.
`Nc1sc2c(-c3ccncc3)cccc2c1Nc1ccc(F)c(Cl)c1` [Compound 213, N^3-(3-Chloro-4-fluorophenyl)-7-(pyridin-4-yl)benzo[b]thiophene-2,3-diamine]: the pIC50 is above 6.70 in assay [1], 5.70 to 6.30 in assay [2] and above 6.70 against IDO1 in HeLa cells.
On to `Cc1ccc2sc(N)c(Nc3ccc(F)c(Cl)c3)c2c1` [Compound 214, N^3-(3-Chloro-4-fluorophenyl)-5-methylbenzo[b]thiophene-2,3-diamine], for which the pIC50 in assay [1] is 6.00 to 6.70; in assay [2], below 5.70; against IDO1 in HeLa cells it was above 6.70.
On the same counts, the results for `Cc1ccc2sc(N)c(Nc3ccc(F)c(F)c3)c2c1` [Compound 215, N^3-(3,4-difluorophenyl)-5-methylbenzo[b]thiophene-2,3-diamine] are 6.00 to 6.70, below 5.70 and above 6.70.
On the same counts, the results for `Nc1oc2cnc(F)cc2c1Nc1ccc(F)c(F)c1` [Compound 216, N^3-(3,4-difluorophenyl)-5-fluorofuro[2,3-c]pyridine-2,3-diamine] are above 6.70, above 6.30 and above 6.70.
As for `Nc1oc2c(-c3ccncc3)nccc2c1Nc1cccc(Cl)c1` [Compound 217, N^3-(3-Chlorophenyl)-7-(pyridin-4-yl)furo[2,3-c]pyridine-2,3-diamine], the figures for the pIC50 (in assay [1]; in assay [2]; at IDO1 in HeLa cells) were above 6.70, above 6.30 and above 6.70, respectively.
On to `Nc1oc2cnc(F)cc2c1Nc1ccccc1Cl` [Compound 218, N^3-(2-Chlorophenyl)-5-fluorofuro[2,3-c]pyridine-2,3-diamine], for which the negative-log IC50 (pIC50) was 6.00 to 6.70 in assay [1], 5.70 to 6.30 in assay [2] and above 6.70 on IDO1 in HeLa cells.
On the same counts, the results for `CNC(=O)c1cc(-c2nccc3c(Nc4ccccc4Cl)c(N)oc23)ccn1` [Compound 219, 4-(2-Amino-3-((2-chlorophenyl)amino)furo[2,3-c]pyridin-7-yl)-N-methylpicolinamide] are above 6.70, 5.70 to 6.30 and above 6.70.
On the same counts, the results for `Nc1oc2cnc(F)cc2c1Nc1cccc(Cl)c1` [Compound 220, N^3-(3-Chlorophenyl)-5-fluorofuro[2,3-c]pyridine-2,3-diamine] are above 6.70, above 6.30 and above 6.70.
With `Nc1oc2cnc(F)cc2c1Nc1cccc(C(F)(F)F)c1` [Compound 221, 5-Fluoro-N^3-(3-(trifluoromethyl)phenyl)furo[2,3-c]pyridine-2,3-diamine], the pIC50 is above 6.70 in assay [1], 5.70 to 6.30 in assay [2] and above 6.70 against IDO1 in HeLa cells.
For `CNC(=O)c1cc(-c2nccc3c(Nc4ccc(F)c(F)c4)c(N)oc23)ccn1` [Compound 223, 4-(2-Amino-3-((3,4-difluorophenyl)amino)furo[2,3-c]pyridin-7-yl)-N-methylpicolinamide], the results for the pIC50 (in assay [1]; in assay [2]; on IDO1 in HeLa cells) were above 6.70, 5.70 to 6.30 and above 6.70, respectively.
With `CNC(=O)c1cc(-c2nccc3c(Nc4ccc(F)cc4)c(N)oc23)ccn1` [Compound 224, 4-(2-Amino-3-((4-fluorophenyl)amino)furo[2,3-c]pyridin-7-yl)-N-methylpicolinamide], the negative logarithm of the IC50 (pIC50) was above 6.70 in assay [1], above 6.30 in assay [2] and above 6.70 against IDO1 in HeLa cells.
On to `CNC(=O)c1cc(-c2nccc3c(Nc4cccc(Cl)c4)c(N)oc23)ccn1` [Compound 225, 4-(2-Amino-3-((3-chlorophenyl)amino)furo[2,3-c]pyridin-7-yl)-N-methylpicolinamide], for which the pIC50 in assay [1] is above 6.70; in assay [2], 5.70 to 6.30; against IDO1 in HeLa cells, above 6.70.
For `CNC(=O)c1cc(-c2nccc3c(Nc4cccc(C(F)(F)F)c4)c(N)oc23)ccn1` [Compound 226, 4-(2-Amino-3-((3-(trifluoromethyl)phenyl)amino)furo[2,3-c]pyridin-7-yl)-N-methylpicolinamide], the negative logarithm of the IC50 (pIC50) in assay [1] is above 6.70; in assay [2], below 5.70; against IDO1 in HeLa cells, above 6.70.
Consider `CNC(=O)c1cc(-c2nccc3c(Nc4ccc(F)c(C(F)(F)F)c4)c(N)oc23)ccn1` [Compound 227, 4-(2-amino-3-((4-fluoro-3-(trifluoromethyl)phenyl)amino)furo[2,3-c]pyridin-7-yl)-N-methylpicolinamide], for which the pIC50 in assay [1] is above 6.70; in assay [2], below 5.70; at IDO1 in HeLa cells it was above 6.70.
Consider `Nc1oc2cnc(F)cc2c1Nc1ccc(F)cc1` [Compound 228, 5-Fluoro-N^3-(4-fluorophenyl)furo[2,3-c]pyridine-2,3-diamine], for which the pIC50 in assay [1] is above 6.70; in assay [2], above 6.30; against IDO1 in HeLa cells it was above 6.70.
For `COc1cc(-c2nccc3c(Nc4ccc(F)c(Cl)c4)c(N)oc23)ccn1` [Compound 229, N^3-(3-Chloro-4-fluorophenyl)-7-(2-methoxypyridin-4-yl)furo[2,3-c]pyridine-2,3-diamine], the figures for the pIC50 (in assay [1]; in assay [2]; against IDO1 in HeLa cells) were above 6.70, 5.70 to 6.30 and above 6.70, respectively.
`Nc1sc2ccccc2c1Nc1cccc(Br)c1` [Compound 230, N^3-(3-Bromophenyl)benzo[b]thiophene-2,3-diamine]: the pIC50 in assay [1] was above 6.70; in assay [2], 5.70 to 6.30; against IDO1 in HeLa cells it was above 6.70.
`Nc1sc2ccccc2c1Nc1ccc(F)cc1` [Compound 231, N^3-(4-Fluorophenyl)benzo[b]thiophene-2,3-diamine]: the values for the pIC50 (in assay [1]; in assay [2]; against IDO1 in HeLa cells) were 6.00 to 6.70, below 5.70 and 6.00 to 6.70, respectively.
Turning to `CCc1ccccc1Nc1c(N)sc2ccccc12` [Compound 232, N^3-(2-Ethylphenyl)benzo[b]thiophene-2,3-diamine hydrochloride], the pIC50 was below 6.00 in assay [1], below 5.70 in assay [2] and below 6.00 against IDO1 in HeLa cells.
